Data on one molecule can be found in article PMC9822155, “Synthesis and Antiproliferative Activity against Cancer Cells of Indole-Aryl-Amide Derivatives” (Molecules, 2022).

The subject of assay [1] is HeLa (human cervical carcinoma) cells. The assay can be described thus: MTT viability assay, HeLa. Type of assay: cell-based. The settings on record: Homo sapiens; MTT, 24 h. The text has this:
(§1) To investigate whether the compounds have an antitumor activity, we performed in vitro viability assays against a panel of cancer cell lines: HT29 (human colorectal adenocarcinoma), HeLa (human cervical carcinoma), IGROV-1 (human ovarian carcinoma), MCF7 (human breast cancer), PC-3 (human prostate adenocarcinoma), and Jurkat J6 (human […]). The I407 (human embryonic intestinal) and 3T3 (mouse embryonic fibroblast) cells were used as controls. The growth inhibitory concentration was determined by incubating the cells with increasing concentrations (0.01–500 μM) of the compounds for 24 h. Data obtained from cell growth assays were elaborated to assess the concentration of cell viability (IC50) and selectivity indices (SI), and the results are shown in Table 2 and Table 3, respectively.
(§2) HT29 human colorectal adenocarcinoma cells, HeLa human cervix adenocarcinoma cells, MCF7 human breast adenocarcinoma cells, PC-3 human prostate adenocarcinoma cells, J6 Jurkat Clone E6-1 acute T cell leukemia, the healthy I407 human intestine cells, and mouse embryonic fibroblast 3T3 fibroblasts as controls cell lines were purchased from American Type Culture Collection (ATCC, Manassas, VA). The human ovarian cancer cell line IGROV1 has been kindly provided by Prof. Colnaghi (Istituto Nazionale Tumori (IRCCS) (Milano, Italy). Cells were cultured in RPMI 1640 medium (Labtek Eurobio, Milan, Italy), supplemented with 10% FCS (Euroclone, Milano, Italy) and 2 mM L-glutamine (Sigma-Aldrich, Milano, Italy), at 37 °C, and a 5% CO2 atmosphere. The compounds were dissolved in DMSO in a 30–40 mM stock solution. In cell treatments, the final DMSO concentration never exceeded 0.1%.
(§3) Cells were seeded at 1.5 × 10^4 cells/well in a 96-well culture plastic plate (Sarsted, Milan, Italy), and after 24 h of growth were exposed to increasing concentrations of each distinct compound (from 0.010 μM to 500 μM) solubilized in RPMI 1640 medium. MTT assay was performed according to the literature. In brief, after 24 h of treatment, the culture medium was replaced with 0.1 mL of 3-(4,5-dimethylthiazolyl-2)-2,5-diphenyltetrazolium bromide (MTT, Sigma-Aldrich, Milano, Italy) dissolved in PBS at the concentration of 0.2 mg/mL, and samples were incubated for 2 h at 37 °C. The absorbance at 570 nm was measured using a multiwell plate reader (Tecan, Männemorf, Switzerland), and data were analyzed by Prism GraphPad software, and expressed as IC50 μM.
In general terms: Tetrazolium dyes change colour on reduction, which living cells bring about.

In assay [2] the test system is Jurkat J6 cells. The assay can be described thus: MTT viability assay, Jurkat J6. Type of assay: cell-based, human.
Source text: as §1, §2, §3

The subject of assay [3] is HT29 cells. The assay can be described thus: Cell cycle analysis by flow cytometry (PI staining). Type of assay: cell-based, human. Conditions: HT29, 5 μM, 24 h. The protocol:
HT29 cells were treated with 1 or 5 μM 5 for 24 h and analyzed by flow cytometry after DNA staining. […] In contrast, 5-treated HT29 cells accumulated in the G0/G1 phase in a dose-dependent manner, with a nearly complete synchronization (84% ± 0.9) after 5 μM treatment.
HT29 were plated at density of 20,000 cell/cm^2 in dish and after 24 h treated with 1 or 5 μM of 5 for 24 h. The samples were prepared in according to Calonghi. In brief, untreated and treated cells were detached, washed in PBS and the pellet was finally re-suspended in 0.01% Nonidet P-40 (Sigma-Aldrich, Milano, Italy), 10 μg/mL RNase (Sigma-Aldrich, Milano, Italy), 0.1% sodium citrate (Sigma-Aldrich, Milano, Italy), 50 μg/mL propidium iodide (PI) (Sigma-Aldrich, Milano, Italy), for 30 min at room temperature in the dark. Propidium iodide (PI) fluorescence was acquired on a linear scale and analysed by Modfit software version 5.2 (USA). Flow cytometric assays were performed on a Brite HS flow cytometer (Bio-Rad, Watford, UK) equipped with a Xe/Hg lamp.
(In general: Flow cytometry measures light scatter and fluorescence of single cells or particles in a stream.)

The subject of assay [4] is IGROV-1 (human ovarian carcinoma) cells. The assay can be described thus: MTT viability assay, IGROV-1. Type of assay: cell-based. The settings on record: 24 h.
Source text: as §1, §2, §3

The target of assay [5] is T1, κ-OR (Homo sapiens, UniProt P41145).
T1 construct: purchased PerkinElmer (Krakow, Poland); host or cells: CHO cells (membranes)
T1 sequence (P41145 whole entry): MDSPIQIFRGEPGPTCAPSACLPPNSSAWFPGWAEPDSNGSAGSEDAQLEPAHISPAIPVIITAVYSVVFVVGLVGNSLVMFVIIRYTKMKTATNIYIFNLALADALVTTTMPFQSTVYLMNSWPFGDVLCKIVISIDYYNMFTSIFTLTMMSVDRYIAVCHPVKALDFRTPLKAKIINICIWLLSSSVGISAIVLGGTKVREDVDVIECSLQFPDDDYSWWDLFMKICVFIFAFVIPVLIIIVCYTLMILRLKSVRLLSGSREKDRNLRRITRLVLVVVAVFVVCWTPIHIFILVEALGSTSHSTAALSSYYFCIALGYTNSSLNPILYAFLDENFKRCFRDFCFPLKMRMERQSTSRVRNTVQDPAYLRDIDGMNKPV
As to the kind of experiment: Radioligand binding assay, κ-OR ([3H]U-69593 displacement). The settings on record: [3H]U-69593, membranes of CHO cells with human recombinant OR; ± SEM (n ≥ 3). The protocol:
(§4) In order to evaluate the affinity of the compounds for μ-, δ-, κ-ORs, radioligand binding assays were performed. Displacement of radioligands, [^3H]DAMGO (μ-OR selective), [^3H]deltorphin-2 (δ-OR selective), and [^3H]U-69593 (κ-OR selective) by the synthetic analogs was investigated in the commercial membranes of CHO cells transfected with human recombinant ORs. […] Due to the modest receptor affinities, the functional activity of the compounds was not investigated.
(§5) Opioid radioligands, [^3H]DAMGO, [^3H]deltorphin-2 and [^3H]U-69593, and human recombinant opioid receptors came from PerkinElmer (Krakow, Poland). GF/B glass fiber strips were purchased from Whatman (Brentford, UK).
(§6) To determine the affinity of peptide analogs at the respective receptors, competition binding experiments were performed. Commercial membranes of CHO cells stably expressing human opioid receptors and the competing radioligands, [^3H]DAMGO, [^3H]deltorphin-2, and [^3H]U-69593 for μ-OR, δ-OR, and κ-OR, respectively, were used. Membranes were incubated in 0.5 mL volume of 50 mM Tris/HCl (pH = 7.4), 0.5% bovine serum albumin (BSA), with a number of peptidase inhibitors (bacitracin, bestatin, captopril) and various concentrations of radioligands for 2 h at 25 °C. Non-specific binding was assessed in the presence of […]. Three independent experiments for each assay were carried out in duplicate. The data were analyzed by a nonlinear least square regression analysis computer program Graph Pad PRISM 6.0 (Graph Pad Software Inc., San Diego, CA, USA). The IC50 values were determined from the logarithmic concentration-displacement curves, and the values of the inhibitory constants (Ki) were calculated according to the equation of Cheng and Prusoff.

Assay [6] deals with MCF7 (human breast cancer) cells. The assay can be described thus: MTT viability assay, MCF7. Type of assay: cell-based. The settings on record: Homo sapiens, MCF7; MTT, 24 h.
Source text: as §1, §2, §3

For assay [7], the target named is T2, δ-OR (Homo sapiens, UniProt P41143).
T2 construct: purchased PerkinElmer (Krakow, Poland); host or cells: CHO cells (membranes)
T2 sequence (P41143 whole entry): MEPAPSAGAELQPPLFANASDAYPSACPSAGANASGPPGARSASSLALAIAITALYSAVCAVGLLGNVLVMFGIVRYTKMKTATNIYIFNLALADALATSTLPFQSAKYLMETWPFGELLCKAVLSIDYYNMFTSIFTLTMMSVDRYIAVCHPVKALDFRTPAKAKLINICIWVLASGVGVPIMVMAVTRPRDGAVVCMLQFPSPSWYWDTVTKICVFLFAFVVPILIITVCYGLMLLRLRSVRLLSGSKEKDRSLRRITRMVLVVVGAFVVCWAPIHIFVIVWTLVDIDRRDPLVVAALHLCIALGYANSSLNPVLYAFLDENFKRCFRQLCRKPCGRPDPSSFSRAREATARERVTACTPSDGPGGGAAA
As to the kind of experiment: Radioligand binding assay, δ-OR ([3H]deltorphin-2 displacement). The settings on record: [3H]deltorphin-2, membranes of CHO cells with human recombinant OR; ± SEM (n ≥ 3). The protocol:
as §4, §5, §6

The test system of assay [8] is I407 (human embryonic intestinal) cells. As to the kind of experiment: MTT viability assay, I407. Conditions: 24 h, normal cells. Type of assay: cell-based.
Source text: as §1, §2, §3

For assay [9], the system named is HT29 (human colorectal adenocarcinoma) cells. The assay can be described thus: MTT viability assay, HT29. Type of assay: cell-based.
Source text: as §1, §2, §3

In the case of `Nc1ccc(CN(Cc2ccc(O)cc2)C(=O)Cc2c[nH]c3ccccc23)cc1` [Compound 5], the IC50 (in general, the point on the concentration scale where inhibition reaches its midpoint) in assay [1] was over 500 µM; in assay [2] (Homo sapiens, Jurkat, MTT, 24 h), 0.37 ± 0.04 µM; in assay [4] it was over 500 µM; in assay [6], over 500 µM; in assay [8] (Homo sapiens), over 500 µM; in assay [9] (Homo sapiens, HT-29, MTT, 24 h), 2.61 ± 0.05 µM. In addition, the “Selectivity Index IC503T3/ IC50J6” value in assay [2] (3T3 normal cells as reference) was determined as 86.487. Further, the “Cells in G0/G1 phase” value in assay [3] is on record as 84% ± 0.9. In addition, the Ki (in general, the dissociation constant of the complex between target and ligand, obtained from inhibition or displacement) was 3.8 ± 0.52 µM in [5] and 10.8 ± 1.3 µM in [7]. Also, in assay [5], the “Ki (µM) κ-OR” value is reported as “low μM range”. For the same molecule, the “IC50 [µM] I407” value in assay [8] is “no activity”. In assay [9] (3T3 normal cells as reference), the “Selectivity Index IC503T3/ IC50HT29” value is 12.26.
